Measured values taken from ChEMBL document CHEMBL4732067, “Synthesis and evaluation of new compounds bearing 3-(4-aminopiperidin-1-yl)methyl magnolol scaffold as anticancer agents for the treatment of non-small cell lung cancer via targeting autophagy” (Eur J Med Chem, 2021).

What was measured:
[1] = test system: NCI-H460; assay: Antitumor activity against human NCI-H460 cells xenografted in nude BABL/c mouse assessed as tumor growth inhibition at 10 mg/kg, po administered once daily and measured every two days by caliper method relative to control; type: functional; conditions: 48 h, read-out: TGI
[2] = Toxicity in nude BALB/c mouse xenografted with C26 cells assessed as body weight loss at 60 mg/kg, po administered once daily and measured every two days; type: organism-based; conditions: in vivo
[3] = test system: HCC827; assay: Antiproliferative activity against human HCC827 cells assessed as reduction in cell viability after 72 hrs by MTT assay; type: functional, cell-based; conditions: HCC827, 72 h
[4] = test system: NCI-H1975; assay: Antiproliferative activity against human NCI-H1975 cells assessed as reduction in cell viability after 72 hrs by MTT assay; type: functional, cell-based; conditions: NCI-H1975, 72 h
[5] = test system: NCI-H460; assay: Antiproliferative activity against human NCI-H460 cells assessed as reduction in cell viability after 72 hrs by MTT assay; type: functional, cell-based; conditions: NCI-H460, 72 h
[6] = test system: A549; assay: Antiproliferative activity against human A549 cells expressing wild type EGFR assessed as reduction in cell viability after 72 hrs by MTT assay; type: functional, cell-based; conditions: A549, 72 h
[7] = Antiproliferative activity against human SPCA1 cells expressing wild type EGFR assessed as reduction in cell viability after 72 hrs by MTT assay; type: functional, cell-based; conditions: SPCA1, 72 h
[8] = test system: NCI-H1650; assay: Antiproliferative activity against human NCI-H1650 cells expressing EGFR mutant assessed as reduction in cell viability after 72 hrs by MTT assay; type: functional, cell-based; conditions: NCI-H1650, 72 h
[9] = test system: NCI-H441; assay: Antiproliferative activity against human NCI-H441 cells […] assessed as reduction in cell viability after 72 hrs by MTT assay; type: functional, cell-based; conditions: NCI-H441, 72 h
[10] = Metabolic stability in human liver microsomes assessed as half life; type: ADME, Microsome
[11] = Metabolic stability in human liver microsomes assessed as intrinsic clearance per gram protein; type: ADME, Microsome
[12] = test system: L929; assay: Cytotoxicity against mouse L929 cells; type: cell-based
[13] = Antitumor activity against mouse C26 cells xenografted in BALB/c mouse assessed as tumor growth inhibition at 50 mg/kg, po administered once daily and measured every two days by caliper method relative to control; type: functional; conditions: 48 h, read-out: TGI
[14] = Toxicity in nude BALB/c mouse xenografted with C26 cells assessed as change in body weight at 50 mg/kg, po administered once daily and measured every two days; type: organism-based; conditions: in vivo
[15] = Toxicity in nude BALB/c mouse xenografted with C26 cells assessed as abnormalities in liver size and morphology at 50 mg/kg, po administered once daily; type: organism-based; conditions: in vivo
[16] = Toxicity in nude BALB/c mouse xenografted with C26 cells assessed as abnormalities in kidney size and morphology at 50 mg/kg, po administered once daily; type: organism-based; conditions: in vivo
[17] = Toxicity in nude BALB/c mouse xenografted with C26 cells assessed as abnormalities in lung size and morphology at 50 mg/kg, po administered once daily; type: organism-based; conditions: in vivo
[18] = Toxicity in nude BALB/c mouse xenografted with C26 cells assessed as abnormalities in heart size and morphology at 50 mg/kg, po administered once daily; type: organism-based; conditions: in vivo
[19] = test system: NCI-H460; assay: Antitumor activity against human NCI-H460 cells xenografted in nude BABL/c mouse assessed as tumor growth inhibition at 60 mg/kg, po administered once daily and measured every two days by caliper method relative to control; type: functional; conditions: 48 h, read-out: TGI
[20] = test system: NCI-H460; assay: Induction of cell cycle arrest in human NCI-H460 cells assessed as accumulation at G0/G1 phase at 1 uM incubated for 24 hrs by propidium iodide staining based flow cytometry (reference value: 53.97 %); type: functional
[21] = test system: NCI-H460; assay: Induction of cell cycle arrest in human NCI-H460 cells assessed as accumulation at G2/M phase at 1 uM incubated for 24 hrs by propidium iodide staining based flow cytometry (reference value: 16.71 %); type: functional
[22] = test system: NCI-H460; assay: Induction of cell cycle arrest in human NCI-H460 cells assessed as accumulation at S phase at 1 uM incubated for 24 hrs by propidium iodide staining based flow cytometry (reference value: 29.32 %); type: functional
[23] = test system: NCI-H460; assay: Induction of cell cycle arrest in human NCI-H460 cells assessed as accumulation at G0/G1 phase at 5 uM incubated for 24 hrs by propidium iodide staining based flow cytometry (reference value: 53.97 %); type: functional
[24] = test system: NCI-H460; assay: Induction of cell cycle arrest in human NCI-H460 cells assessed as accumulation at G2/M phase at 5 uM incubated for 24 hrs by propidium iodide staining based flow cytometry (reference value: 16.71 %); type: functional
[25] = test system: NCI-H460; assay: Induction of cell cycle arrest in human NCI-H460 cells assessed as accumulation at S phase at 5 uM incubated for 24 hrs by propidium iodide staining based flow cytometry (reference value: 29.32 %); type: functional
[26] = test system: NCI-H460; assay: Induction of cell cycle arrest in human NCI-H460 cells assessed as accumulation at G0/G1 phase at 10 uM incubated for 24 hrs by propidium iodide staining based flow cytometry (reference value: 53.97 %); type: functional
[27] = test system: NCI-H460; assay: Induction of cell cycle arrest in human NCI-H460 cells assessed as accumulation at G2/M phase at 10 uM incubated for 24 hrs by propidium iodide staining based flow cytometry (reference value: 16.71 %); type: functional
[28] = test system: NCI-H460; assay: Induction of cell cycle arrest in human NCI-H460 cells assessed as accumulation at S phase at 10 uM incubated for 24 hrs by propidium iodide staining based flow cytometry (reference value: 29.32 %); type: functional
[29] = test system: NCI-H460; assay: Induction of apoptosis in human NCI-H460 cells assessed as viable cells at 1 uM after 48 hrs by Annexin V-FITC/propidium iodide staining based flow cytometric analysis (reference value: 91.528 %); type: functional; conditions: read-out: Activity
[30] = test system: NCI-H460; assay: Induction of apoptosis in human NCI-H460 cells assessed as early apoptotic cells at 1 uM after 48 hrs by Annexin V-FITC/propidium iodide staining based flow cytometric analysis (reference value: 3.980 %); type: functional
[31] = test system: NCI-H460; assay: Induction of apoptosis in human NCI-H460 cells assessed as late apoptotic cells at 1 uM after 48 hrs by Annexin V-FITC/propidium iodide staining based flow cytometric analysis (reference value: 3.995 %); type: functional
[32] = test system: NCI-H460; assay: Induction of apoptosis in human NCI-H460 cells assessed as necrotic cells at 1 uM after 48 hrs by Annexin V-FITC/propidium iodide staining based flow cytometric analysis (reference value: 0.498 %); type: functional
[33] = test system: NCI-H460; assay: Induction of apoptosis in human NCI-H460 cells assessed as viable cells at 2 uM after 48 hrs by Annexin V-FITC/propidium iodide staining based flow cytometric analysis (reference value: 91.528 %); type: functional; conditions: read-out: Activity
[34] = test system: NCI-H460; assay: Induction of apoptosis in human NCI-H460 cells assessed as early apoptotic cells at 2 uM after 48 hrs by Annexin V-FITC/propidium iodide staining based flow cytometric analysis (reference value: 3.980 %); type: functional
[35] = test system: NCI-H460; assay: Induction of apoptosis in human NCI-H460 cells assessed as late apoptotic cells at 2 uM after 48 hrs by Annexin V-FITC/propidium iodide staining based flow cytometric analysis (reference value: 3.995 %); type: functional
[36] = test system: NCI-H460; assay: Induction of apoptosis in human NCI-H460 cells assessed as necrotic cells at 2 uM after 48 hrs by Annexin V-FITC/propidium iodide staining based flow cytometric analysis (reference value: 0.498 %); type: functional
[37] = test system: NCI-H460; assay: Induction of apoptosis in human NCI-H460 cells assessed as viable cells at 5 uM after 48 hrs by Annexin V-FITC/propidium iodide staining based flow cytometric analysis (reference value: 91.528 %); type: functional; conditions: read-out: Activity
[38] = test system: NCI-H460; assay: Induction of apoptosis in human NCI-H460 cells assessed as early apoptotic cells at 5 uM after 48 hrs by Annexin V-FITC/propidium iodide staining based flow cytometric analysis (reference value: 3.980 %); type: functional
[39] = test system: NCI-H460; assay: Induction of apoptosis in human NCI-H460 cells assessed as late apoptotic cells at 5 uM after 48 hrs by Annexin V-FITC/propidium iodide staining based flow cytometric analysis (reference value: 3.995 %); type: functional
[40] = test system: NCI-H460; assay: Induction of apoptosis in human NCI-H460 cells assessed as necrotic cells at 5 uM after 48 hrs by Annexin V-FITC/propidium iodide staining based flow cytometric analysis (reference value: 0.498 %); type: functional
[41] = test system: NCI-H460; assay: Induction of apoptosis in human NCI-H460 cells assessed as viable cells at 10 uM after 48 hrs by Annexin V-FITC/propidium iodide staining based flow cytometric analysis (reference value: 91.528 %); type: functional; conditions: read-out: Activity
[42] = test system: NCI-H460; assay: Induction of apoptosis in human NCI-H460 cells assessed as early apoptotic cells at 10 uM after 48 hrs by Annexin V-FITC/propidium iodide staining based flow cytometric analysis (reference value: 3.980 %); type: functional
[43] = test system: NCI-H460; assay: Induction of apoptosis in human NCI-H460 cells assessed as late apoptotic cells at 10 uM after 48 hrs by Annexin V-FITC/propidium iodide staining based flow cytometric analysis (reference value: 3.995 %); type: functional
[44] = test system: NCI-H460; assay: Induction of apoptosis in human NCI-H460 cells assessed as necrotic cells at 10 uM after 48 hrs by Annexin V-FITC/propidium iodide staining based flow cytometric analysis (reference value: 0.498 %); type: functional

**Q.** For CCN(CC)CCCC(C)Nc1ccnc2cc(Cl)ccc12 (stereo not given) [CHLOROQUINE PHOSPHATE], which inhibition in vivo at 10 mg/kg [1] is on record?
**A.** 8.67%

**Q.** What does the source list for C=CCc1ccc(OCC)c(-c2cc(CC=C)cc(CN3CCC(NC(=O)[C@@H](N)Cc4ccccc4)CC3)c2O)c1?
**A.** Activity [2]: Toxic; IC50 [3]: 0.82 µM; IC50 [4]: 1.45 µM; IC50 [5]: 1.11 µM; IC50 [6]: 2 µM; IC50 [7]: 1.94 µM; IC50 [8]: 2.34 µM; IC50 [9]: 2.12 µM; half-life [10]: 0.41 h; CLint [11]: 56.4 mL/min/g; IC50 [12]: 6.24 µM; inhibition in vivo at 50 mg/kg [13]: 57.4%; Activity [14]: Toxic; Activity [15]: Non-Toxic; Activity [16]: Non-Toxic; Activity [17]: Non-Toxic; Activity [18]: Non-Toxic

**Q.** Which results are given for C=CCc1ccc(O)c(-c2cc(CC=C)cc(CN3CCC(N)CC3)c2O)c1?
**A.** IC50 [3]: 10.8 µM; IC50 [4]: 8.68 µM; IC50 [5]: 9.25 µM; IC50 [6]: 8.31 µM; IC50 [7]: 9.66 µM; IC50 [8]: 6.46 µM; IC50 [9]: 7.12 µM; half-life [10]: 2.1 h; CLint [11]: 11 mL/min/g; IC50 [12]: 0.83 µM; inhibition in vivo at 50 mg/kg [13]: 45.5%; inhibition in vivo at 60 mg/kg [19]: 45.2%; Activity [20]: 55%; Activity [21]: 22.68%; Activity [22]: 22.32%; Activity [23]: 58.76%; Activity [24]: 18.49%; Activity [25]: 22.74%; Activity [26]: 65.66%; Activity [27]: 15.16%; Activity [28]: 19.19%; viability at 1 µM [29]: 88.8%; Activity [30]: 6.017%; Activity [31]: 4.207%; Activity [32]: 0.931%; viability at 2 µM [33]: 87.6%; Activity [34]: 6.067%; Activity [35]: 5.012%; Activity [36]: 1.301%; viability at 5 µM [37]: 86.9%; Activity [38]: 6.82%; Activity [39]: 5.72%; Activity [40]: 0.51%; viability at 10 µM [41]: 73.4%; Activity [42]: 19.124%; Activity [43]: 7.246%; Activity [44]: 0.173%
